Active and inactive are the calls of the source. The rule behind the calls is not given here.
Tests used:
[1] = Antagonist activity at human NR1-NR2A receptor by FLIPR-based Ca2+ flux assay
[2] = molecular target: Glutamate receptor ionotropic, NMDA 2B (Homo sapiens, UniProt Q05586+Q13224); assay: Displacement of [3H]-Ro256981 from human NR2B receptor
Homo sapiens = species: Homo sapiens; assay: Selectivity ratio of human NR2B receptor over human ERG
[3] = Inhibition of alpha1 adrenergic receptor at 10 uM
[4] = molecular target: T1, Glutamate NMDA receptor; GRIN1/GRIN2B (Homo sapiens) (UniProt Q05586+Q13224); assay: Reversible inhibition of human NR1-NR2B receptor expressed in HEK293T cells assessed as inhibition of glutamate-induced response by whole cell voltage clamp electrophysiology assay; format: cell-based; settings: HEK-293T
[5] = molecular target: T1, Glutamate NMDA receptor; GRIN1/GRIN2B (Homo sapiens); assay: Reversible inhibition of human NR1-NR2B receptor expressed in HEK293T cells assessed as inhibition of glycine-induced response by whole cell voltage clamp electrophysiology assay; format: cell-based; settings: HEK-293T
Cytochrome P450 2C19 = Cytochrome P450 2C19 (Homo sapiens, UniProt P33261); assay: Inhibition of CYP2C19; format: ADME
Cytochrome P450 1A2 = molecular target: T2, Cytochrome P450 1A2 (Homo sapiens, UniProt P05177); assay: Inhibition of CYP1A2; format: ADME
T2 sequence (P05177 whole entry): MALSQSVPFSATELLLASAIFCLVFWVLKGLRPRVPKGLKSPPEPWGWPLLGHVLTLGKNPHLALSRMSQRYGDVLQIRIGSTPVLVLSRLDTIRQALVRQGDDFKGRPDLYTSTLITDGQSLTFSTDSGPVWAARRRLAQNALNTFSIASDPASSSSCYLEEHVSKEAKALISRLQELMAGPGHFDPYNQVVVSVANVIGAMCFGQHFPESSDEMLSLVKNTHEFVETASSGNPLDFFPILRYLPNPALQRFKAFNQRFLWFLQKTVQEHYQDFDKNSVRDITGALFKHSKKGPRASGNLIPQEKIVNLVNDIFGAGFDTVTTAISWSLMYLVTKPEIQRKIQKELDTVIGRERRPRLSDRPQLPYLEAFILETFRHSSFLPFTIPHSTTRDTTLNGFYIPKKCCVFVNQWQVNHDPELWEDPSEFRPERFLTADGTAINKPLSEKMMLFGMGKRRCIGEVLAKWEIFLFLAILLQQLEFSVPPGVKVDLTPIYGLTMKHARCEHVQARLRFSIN

Liver microsomes = assay: Intrinsic clearance in human liver microsomes; format: ADME, Microsome
Cytochrome P450 2D6 = Cytochrome P450 2D6 (Homo sapiens, UniProt P10635); assay: Inhibition of CYP2D6; format: ADME
Cytochrome P450 2C9 = Cytochrome P450 2C9 (Homo sapiens, UniProt P11712); assay: Inhibition of CYP2C9; format: ADME
Cytochrome P450 3A4 = Cytochrome P450 3A4 (Homo sapiens, UniProt P08684); assay: Inhibition of CYP3A4; format: ADME
[6] = Terminal half life in rat at 3 mg/kg, sc; format: ADME, organism-based; design: dose 3 mg/kg, route subcutaneous; settings: in vivo, read-out: beta t1/2 (converted)
[7] = Ratio of drug level in brain to blood in rat at 3 mg/kg, sc; format: ADME, organism-based; design: dose 3 mg/kg, route subcutaneous
Blood = assay: Drug uptake in rat blood at 3 mg/kg, sc; format: ADME, organism-based; design: dose 3 mg/kg, route subcutaneous; settings: in vivo, read-out: Drug uptake
[8] = Tmax in rat at 3 mg/kg, sc; format: ADME, organism-based; design: dose 3 mg/kg, route subcutaneous; settings: in vivo

Cytochrome P450 2C19, sequence (P33261 whole entry): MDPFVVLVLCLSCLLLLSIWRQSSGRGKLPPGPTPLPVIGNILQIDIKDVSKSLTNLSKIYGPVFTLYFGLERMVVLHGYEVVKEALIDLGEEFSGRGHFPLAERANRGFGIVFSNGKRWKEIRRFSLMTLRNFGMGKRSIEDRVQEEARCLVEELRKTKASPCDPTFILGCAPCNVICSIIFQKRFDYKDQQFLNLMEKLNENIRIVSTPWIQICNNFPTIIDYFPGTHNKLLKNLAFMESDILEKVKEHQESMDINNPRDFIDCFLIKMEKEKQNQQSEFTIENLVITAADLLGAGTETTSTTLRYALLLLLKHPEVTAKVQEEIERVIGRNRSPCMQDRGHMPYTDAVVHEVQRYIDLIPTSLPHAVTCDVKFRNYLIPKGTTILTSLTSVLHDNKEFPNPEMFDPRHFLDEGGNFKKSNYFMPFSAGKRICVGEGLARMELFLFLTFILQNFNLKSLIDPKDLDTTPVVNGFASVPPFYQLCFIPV
Cytochrome P450 3A4, sequence (P08684 whole entry): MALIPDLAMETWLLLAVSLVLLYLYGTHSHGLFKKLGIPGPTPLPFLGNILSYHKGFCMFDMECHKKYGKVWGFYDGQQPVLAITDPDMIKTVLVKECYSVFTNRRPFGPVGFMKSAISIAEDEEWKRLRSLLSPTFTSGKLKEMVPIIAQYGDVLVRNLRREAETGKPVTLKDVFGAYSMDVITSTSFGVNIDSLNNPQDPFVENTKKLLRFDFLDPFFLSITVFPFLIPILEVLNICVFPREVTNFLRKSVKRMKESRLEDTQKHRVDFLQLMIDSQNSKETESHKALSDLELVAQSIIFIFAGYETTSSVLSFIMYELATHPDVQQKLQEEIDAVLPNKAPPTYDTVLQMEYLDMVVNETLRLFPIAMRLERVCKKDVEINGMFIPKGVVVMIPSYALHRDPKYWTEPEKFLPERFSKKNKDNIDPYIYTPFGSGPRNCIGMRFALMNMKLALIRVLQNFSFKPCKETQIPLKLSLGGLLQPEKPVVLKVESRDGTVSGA
Cytochrome P450 2D6, sequence (P10635 whole entry): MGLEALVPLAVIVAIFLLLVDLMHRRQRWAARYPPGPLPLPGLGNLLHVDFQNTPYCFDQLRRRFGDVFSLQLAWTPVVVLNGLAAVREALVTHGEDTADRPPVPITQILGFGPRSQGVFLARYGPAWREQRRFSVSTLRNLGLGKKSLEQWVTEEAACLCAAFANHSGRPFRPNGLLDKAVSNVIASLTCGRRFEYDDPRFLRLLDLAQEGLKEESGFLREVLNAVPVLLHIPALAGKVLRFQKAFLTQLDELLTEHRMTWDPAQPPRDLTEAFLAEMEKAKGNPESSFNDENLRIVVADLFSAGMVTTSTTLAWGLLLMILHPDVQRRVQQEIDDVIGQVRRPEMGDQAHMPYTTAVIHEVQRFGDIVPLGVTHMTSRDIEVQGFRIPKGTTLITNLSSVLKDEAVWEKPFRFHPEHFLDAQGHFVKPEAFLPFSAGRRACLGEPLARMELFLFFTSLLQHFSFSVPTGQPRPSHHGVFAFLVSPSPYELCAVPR
Cytochrome P450 2C9, sequence (P11712 whole entry): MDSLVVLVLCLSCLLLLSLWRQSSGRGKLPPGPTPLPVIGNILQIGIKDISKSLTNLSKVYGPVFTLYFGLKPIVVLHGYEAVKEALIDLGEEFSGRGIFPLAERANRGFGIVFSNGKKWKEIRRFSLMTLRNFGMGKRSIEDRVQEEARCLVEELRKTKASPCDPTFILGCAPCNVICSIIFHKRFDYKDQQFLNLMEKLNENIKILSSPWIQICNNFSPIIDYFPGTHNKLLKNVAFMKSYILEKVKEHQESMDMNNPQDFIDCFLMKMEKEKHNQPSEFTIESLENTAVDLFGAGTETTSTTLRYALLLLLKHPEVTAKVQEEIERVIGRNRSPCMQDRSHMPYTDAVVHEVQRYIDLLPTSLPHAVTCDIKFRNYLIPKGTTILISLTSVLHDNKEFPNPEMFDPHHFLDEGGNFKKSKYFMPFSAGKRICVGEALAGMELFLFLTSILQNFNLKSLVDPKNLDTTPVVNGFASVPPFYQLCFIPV

IC50 [1] [µM]	IC50 [2] [µM]	Selectivity ratio (Homo sapiens)	inhibition [3] [%]	Structure (SMILES)	other results
> 50.1	0.398	–	–	CN1CCN(Cc2c(O)ccc3nc(-c4ccccc4)[nH]c23)CC1	–
> 50.1	0.00794	–	–	Oc1ccc2nc(-c3ccccc3)[nH]c2c1CN1CCCC1	–
> 50.1	0.0794	> 100	–	Oc1ccc2[nH]c(-c3ccccc3)nc2c1CN1CCC(c2ccccc2)CC1	–
> 50.1	0.2	> 100	< 50	Fc1ccc2[nH]c(-c3ccccc3)nc2c1CN1CCCCCC1	inhibition [4]: Active; inhibition [5]: Active
> 50.1	> 10	> 100	< 50	Cc1cccc2[nH]c(-c3ccccc3)nc12	inhibition [4]: Active; inhibition [5]: Active
–	–	–	–	c1ccc(-c2nc3cccc(CN4CCCCC4)c3[nH]2)cc1	IC50 (Cytochrome P450 2C19): > 50 µM; IC50 (Cytochrome P450 1A2): 7 µM; CLH (Liver microsomes): 3.6 mL/min/g; IC50 (Cytochrome P450 2D6): 5 µM; IC50 (Cytochrome P450 2C9): > 50 µM; IC50 (Cytochrome P450 3A4): > 50 µM
–	–	–	< 50	Oc1ccc2[nH]c(-c3ccccc3)nc2c1CN1CCCCC1	half-life [6]: 66 min; IC50 (Cytochrome P450 2C19): > 30 µM; Kp [7]: 2.7; IC50 (Cytochrome P450 1A2): 3 µM; concentration (Blood): 600 nM; CLH (Liver microsomes): 3.9 mL/min/g; Tmax [8]: 48 min; IC50 (Cytochrome P450 2D6): 6 µM; IC50 (Cytochrome P450 2C9): > 30 µM; IC50 (Cytochrome P450 3A4): > 30 µM
–	–	> 100	< 50	Oc1ccc2[nH]c(-c3ccccc3)nc2c1CNC1CCCC1	–
–	–	–	< 50	Oc1ccc2[nH]cnc2c1CN1CCCCC1	–
> 50.1	1	–	–	CCC1CCCCN1Cc1c(F)ccc2nc(-c3ccccc3)[nH]c12 (stereo not drawn)	–
–	–	–	< 50	Oc1ccc2[nH]c(-c3ccccc3)nc2c1CN1CCOCC1	–
> 50.1	0.794	–	–	Oc1ccc2nc(-c3cccc(F)c3F)[nH]c2c1CNCc1ccco1	–
> 50.1	0.0316	–	–	Oc1ccc2nc(-c3ccccc3)[nH]c2c1CNC1CCCC1	–
–	–	> 100	< 50	Fc1ccc2[nH]c(-c3ccccc3)nc2c1CN1CCOCC1	inhibition [4]: Active; inhibition [5]: Active
> 50.1	0.0794	–	–	Fc1ccc2nc(-c3ccccc3)[nH]c2c1CN1CCCCC1	–
–	–	–	< 50	Fc1ccc2[nH]c(-c3ccccc3)nc2c1CN1CCCC1	inhibition [4]: Active; inhibition [5]: Active
> 50.1	0.794	–	–	CC(C)NCc1c(F)ccc2nc(-c3ccccc3)[nH]c12	–

IC50 [1] [µM]	IC50 [2] [µM]	Selectivity ratio (Homo sapiens)	inhibition [3] [%]	Structure (SMILES)	other results
–	–	> 100	< 50	Oc1ccc2[nH]c(-c3ccccc3)nc2c1CN1CCCC1	–
–	–	–	< 50	Oc1ccc2[nH]c(Cc3ccccc3)nc2c1CN1CCCC1	–
–	–	> 100	< 50	Fc1ccc2[nH]c(-c3ccccc3)nc2c1CN1CCCCC1	inhibition [4]: Active; inhibition [5]: Active
> 50.1	0.0398	> 100	< 50	Cc1ccc(-c2nc3c(CNC4CC4)c(O)ccc3[nH]2)cc1	–
> 50.1	2.51	–	–	Fc1ccc2nc(-c3ccccc3)[nH]c2c1CN1CCOCC1	–
> 50.1	0.0126	–	–	Oc1ccc2nc(-c3cccc(F)c3F)[nH]c2c1CN1CCCC1	–
–	–	> 100	< 50	CN1CCN(Cc2c(O)ccc3[nH]c(-c4ccccc4)nc23)CC1	–
–	–	> 100	< 50	CCC1CCCCN1Cc1c(F)ccc2[nH]c(-c3ccccc3)nc12 (stereo not drawn)	inhibition [4]: Active; inhibition [5]: Active
–	–	–	< 50	c1ccc(-c2nc3c(CN4CCCCC4)cccc3[nH]2)cc1	inhibition [4]: Active; inhibition [5]: Active
–	–	–	< 50	CCCNCc1c(O)ccc2[nH]c(-c3ccccc3)nc12	–
> 50.1	0.00794	> 100	< 50	Oc1ccc2[nH]c(-c3ccccc3)nc2c1CN1CCCCCC1	–
–	–	–	–	Fc1ccc2nc(-c3ccccc3)[nH]c2c1CN1CCCC1	IC50 (Cytochrome P450 2C19): > 30 µM; IC50 (Cytochrome P450 1A2): 16 µM; CLH (Liver microsomes): < 0.5 mL/min/g; IC50 (Cytochrome P450 2D6): 5 µM; IC50 (Cytochrome P450 2C9): > 30 µM; IC50 (Cytochrome P450 3A4): > 30 µM
–	–	> 100	< 50	Oc1ccc2[nH]c(-c3cccc(F)c3F)nc2c1CN1CCCC1	–
–	–	> 100	< 50	CC(C)NCc1c(F)ccc2[nH]c(-c3ccccc3)nc12	inhibition [4]: Active; inhibition [5]: Active
–	–	–	< 50	CN(C)Cc1c(O)ccc2[nH]c(-c3ccccc3)nc12	–
–	–	> 100	< 50	Oc1ccc2[nH]c(-c3cccc(F)c3F)nc2c1CNCc1ccco1	–
–	–	–	< 50	Oc1ccc2[nH]c(-c3cccc(F)c3F)nc2c1CNCc1cccs1	–

Structure (SMILES)	IC50 [1] [µM]	IC50 [2] [µM]	Selectivity ratio (Homo sapiens)	inhibition [3] [%]	other results
O=C(c1cccc2[nH]c(-c3ccccc3)nc12)N1CCCCC1	–	–	> 100	< 50	inhibition [4]: Active; inhibition [5]: Active
O=C(c1cccc2nc(-c3ccccc3)[nH]c12)N1CCCCC1	> 50.1	> 10	–	–	–

From ChEMBL document CHEMBL2010727, “A novel series of benzimidazole NR2B-selective NMDA receptor antagonists” (Bioorg Med Chem Lett, 2012)
